Assays:
[1] = target: IL-17A(FLAG-Tagged): IL-17RA(His-Tagged) (Homo sapiens, UniProt Q16552, K93Q); experiment: IL-17A(FLAG-Tagged): IL-17RA(His-Tagged) Binding Disruption Eu-HTRF Assay; details: IL-17A/IL-17RA binding disruption, simple average if tested more than once
Summary of the method: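 IC50 comes from a one-site competition fit of the HTRF 665/620 nm ratio. Compound dilutions (2-fold, 22 points) were held 1 h rt with FLAG-tagged IL-17A dimer, then His-tagged IL-17RA plus Eu-cryptate anti-FLAG and D2 anti-His antibodies were added for 2 h rt.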

[2] = test system: IL-17A-induced G-CSF production in human normal keratinocyte (NHK); experiment: NHK Assay: IL-17A-induced G-CSF production in human normal keratinocytes; format: cell-based; details: 24 h, adult normal human keratinocytes, IL-17A 5 ng/mL, simple average if tested more than once
Summary of the method: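 Inhibition of IL-17A-driven G-CSF release is measured in adult keratinocytes stimulated for 24 h at 37° C with 5 ng/mL human IL-17A that had been pre-incubated with compound for 1 h. IC50 comes from HTRF G-CSF levels; cell viability is checked in parallel by luminescent ATP assay.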

Sequence of UniProt Q16552 (Q16552 with tags, fused parts or gaps K93Q): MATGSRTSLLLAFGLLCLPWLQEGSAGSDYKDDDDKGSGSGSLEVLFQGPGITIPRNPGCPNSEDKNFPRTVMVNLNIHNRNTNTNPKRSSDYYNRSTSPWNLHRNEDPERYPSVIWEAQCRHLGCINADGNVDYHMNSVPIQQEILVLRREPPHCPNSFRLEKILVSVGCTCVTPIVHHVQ

| SMILES | IC50 [1] [nM] | IC50 ([2]; Homo sapiens, Keratinocyte) [nM] | IC50 [2] [nM] |
| --- | --- | --- | --- |
| O=C(CCC(F)(F)F)N[C@@H](c1cnn2cc([C@@H](NC(=O)c3cc(F)cc(OC(F)F)c3)C3CCC(F)(F)CC3)nc2c1)C1CC1 [Example 165, N—((S)-(7-((R)-Cyclopropyl(4,4,4-trifluorobutanamido)methyl)imidazo[1,2-b]pyridazin-2-yl)(4,4-difluorocyclohexyl)methyl)-3-(difluoromethoxy)-5-fluorobenzamide] | 52 | 130 | – |
| Cc1ncncc1C(=O)N[C@H](c1cn2ncc([C@H](NC(=O)CCC(F)(F)F)C3CC3)cc2n1)C1CCC(F)(F)CC1 [Example 222, N—((S)-(7-((R)-Cyclopropyl(4,4,4-trifluorobutanamido)methyl)imidazo[1,2-b]pyridazin-2-yl)(4,4-difluorocyclohexyl)methyl)-4-methylpyrimidine-5-carboxamide] | 1000 | > 20000 | – |
| O=C(CC1CC(F)(F)C1)N[C@@H](c1cnn2cc([C@@H](NC(=O)c3nonc3N3CCOCC3)C3CCC(F)(F)CC3)nc2c1)C1CC1 [Example 408, N—((S)-(7-((R)-Cyclopropyl(2-(3,3-difluorocyclobutyl)acetamido)methyl)imidazo[1,2-b]pyridazin-2-yl)(4,4-difluorocyclohexyl)methyl)-4-morpholino-1,2,5-oxadiazole-3-carboxamide] | 54 | 370 | – |
| O=C(CCC(F)(F)F)N[C@@H](c1cnn2cc([C@@H](NC(=O)c3cnnn3CCC(F)F)C3CCC(F)(F)CC3)nc2c1)C1CC1 [Example 49, N—((S)-(7-((R)-Cyclopropyl(4,4,4-trifluorobutanamido)methyl)imidazo[1,2-b]pyridazin-2-yl)(4,4-difluorocyclohexyl)methyl)-1-(3,3-difluoropropyl)-1H-1,2,3-triazole-5-carboxamide] | 95 | 110 | – |
| O=C(CCC(F)F)N[C@@H](c1cnn2cc([C@@H](NC(=O)c3conc3OCC(F)F)C3CCC(F)(F)CC3)nc2c1)C1CC1 [Example 286, N—((S)-(7-((R)-Cyclopropyl(4,4-difluorobutanamido)methyl)imidazo[1,2-b]pyridazin-2-yl)(4,4-difluorocyclohexyl)methyl)-3-(2,2-difluoroethoxy)isoxazole-4-carboxamide] | 310 | 7500 | – |
| O=C(CCC(F)(F)F)N[C@@H](c1cnn2cc([C@@H](NC(=O)c3conc3COC(F)F)C3CCC(F)(F)CC3)nc2c1)C1CC1 [Example 237, N—((S)-(7-((R)-Cyclopropyl(4,4,4-trifluorobutanamido)methyl)imidazo[1,2-b]pyridazin-2-yl)(4,4-difluorocyclohexyl)methyl)-3-((difluoromethoxy)methyl)isoxazole-4-carboxamide] | 52 | 88 | – |
| CCOc1cc(C(=O)N[C@H](c2cn3ncc([C@H](NC(=O)CCC(F)(F)F)C4CC4)cc3n2)C2CCC(F)(F)CC2)ccn1 [Example 177, N—((S)-(7-((R)-Cyclopropyl(4,4,4-trifluorobutanamido)methyl)imidazo[1,2-b]pyridazin-2-yl)(4,4-difluorocyclohexyl)methyl)-2-ethoxyisonicotinamide] | 53 | 440 | – |
| O=C(CCC(F)(F)F)N[C@@H](c1cnn2cc([C@@H](NC(=O)c3ncnn3CCC(F)(F)F)C3CCC(F)(F)CC3)nc2c1)C1CC1 [Example 38, N—((S)-(7-((R)-Cyclopropyl(4,4,4-trifluorobutanamido)methyl)imidazo[1,2-b]pyridazin-2-yl)(4,4-difluorocyclohexyl)methyl)-1-(3,3,3-trifluoropropyl)-1H-1,2,4-triazole-5-carboxamide] | 78 | 400 | – |
| O=C(CCC(F)(F)F)N[C@@H](c1cnn2cc([C@@H](NC(=O)c3ccnc(OCC(F)(F)F)c3)C3CCC(F)(F)CC3)nc2c1)C1CC1 [Example 171, N—((S)-(7-((R)-Cyclopropyl(4,4,4-trifluorobutanamido)methyl)imidazo[1,2-b]pyridazin-2-yl)(4,4-difluorocyclohexyl)methyl)-2-(2,2,2-trifluoroethoxy)isonicotinamide] | 48 | 320 | – |
| O=C(CCC(F)(F)F)N[C@@H](c1cnn2cc([C@@H](NC(=O)c3cccc(N4CCCC4=O)c3)C3CCC(F)(F)CC3)nc2c1)C1CC1 [Example 163, N—((S)-(7-((R)-Cyclopropyl(4,4,4-trifluorobutanamido)methyl)imidazo[1,2-b]pyridazin-2-yl)(4,4-difluorocyclohexyl)methyl)-3-(2-oxopyrrolidin-1-yl)benzamide] | 120 | 100 | – |
| O=C(CCC(F)(F)F)N[C@@H](c1cnn2cc([C@@H](NC(=O)c3ncnn3CCCF)C3CCC(F)(F)CC3)nc2c1)C1CC1 [Example 47, N—((S)-(7-((R)-Cyclopropyl(4,4,4-trifluorobutanamido)methyl)imidazo[1,2-b]pyridazin-2-yl)(4,4-difluorocyclohexyl)methyl)-1-(3-fluoropropyl)-1H-1,2,4-triazole-5-carboxamide] | 180 | 640 | – |
| CC(C)n1nccc1C(=O)N[C@@H](COC(C)(C)C)c1cn2ncc([C@H](NC(=O)CC3CC(F)(F)C3)C3CC3)cc2n1 [Example 318, N—((R)-2-(tert-Butoxy)-1-(7-((R)-cyclopropyl(2-(3,3-difluorocyclobutyl)acetamido)methyl)imidazo[1,2-b]pyridazin-2-yl)ethyl)-1-isopropyl-1H-pyrazole-5-carboxamide] | 270 | 480 | – |
| O=C(CCC(F)(F)F)N[C@H](c1cnn2cc([C@H](NC(=O)c3conc3C3CCCC3)C3CCC(F)(F)CC3)nc2c1)C1CC1 (stereo in doubt) [Example 117, 3-Cyclopentyl-N—((R)-(7-((S)-cyclopropyl(4,4,4-trifluorobutanamido)methyl)imidazo[1,2-b]pyridazin-2-yl)(4,4-difluorocyclohexyl)methyl)isoxazole-4-carboxamide] | 49 | 120 | – |
| Cc1ncccc1C(=O)N[C@H](c1cn2ncc([C@H](NC(=O)CCC(F)(F)F)C3CC3)cc2n1)C1CCC(F)(F)CC1 [Example 200, N—((S)-(7-((R)-Cyclopropyl(4,4,4-trifluorobutanamido)methyl)imidazo[1,2-b]pyridazin-2-yl)(4,4-difluorocyclohexyl)methyl)-2-methylnicotinamide] | 760 | 2200 | – |

More lines, main results first:

| IC50 [1] [nM] | SMILES | IC50 ([2]; Homo sapiens, Keratinocyte) [nM] | IC50 [2] [nM] |
| --- | --- | --- | --- |
| 69 | O=C(CC1CC(F)(F)C1)N[C@@H](c1cnn2cc([C@@H](NC(=O)c3nonc3N3CCC3)C3CCC(F)(F)CC3)nc2c1)C1CC1 [Example 386, 4-(Azetidin-1-yl)-N—((S)-(7-((R)-cyclopropyl(2-(3,3-difluorocyclobutyl)acetamido)methyl)imidazo[1,2-b]pyridazin-2-yl)(4,4-difluorocyclohexyl)methyl)-1,2,5-oxadiazole-3-carboxamide] | 230 | – |
| 290 | CC(C)n1nccc1C(=O)N[C@H](c1cn2ncc([C@H](NC(=O)CC(C)(C)C(F)(F)F)C3CC3)cc2n1)C1CCC(F)(F)CC1 [Example 254, N—((S)-(7-((R)-Cyclopropyl(4,4,4-trifluoro-3,3-dimethylbutanamido)methyl)imidazo[1,2-b]pyridazin-2-yl)(4,4-difluorocyclohexyl)methyl)-1-isopropyl-1H-pyrazole-5-carboxamide] | 200 | – |
| 37 | O=C(CC1CC(F)(F)C1)N[C@@H](c1cnn2cc([C@@H](NC(=O)c3nonc3C3CC3)C3CCC(F)(F)CC3)nc2c1)C1CC1 [Example 289, 4-Cyclopropyl-N—((S)-(7-((R)-cyclopropyl(2-(3,3-difluorocyclobutyl)acetamido)methyl)imidazo[1,2-b]pyridazin-2-yl)(4,4-difluorocyclohexyl)methyl)-1,2,5-oxadiazole-3-carboxamide] | 23 | – |
| 2200 | [2H]C([2H])([2H])C([2H])([2H])n1nccc1C(=O)N[C@H](c1cn2ncc(C(COC)NC(=O)CC3CC(F)(F)C3)cc2n1)C1CCC(F)(F)CC1 (single isomer, unassigned) [Example 522, N—((S)-(7-((S*)-1-(2-(3,3-Difluorocyclobutyl)acetamido)-2-methoxyethyl)imidazo[1,2-b]pyridazin-2-yl)(4,4-difluorocyclohexyl)methyl)-1-(ethyl-d5)-1H-pyrazole-5-carboxamide] | – | 3600 |
| 3800 | CC(C)n1nccc1C(=O)N[C@H](c1cn2ncc(C(NC(=O)CC3CC(F)(F)C3)C3(C#N)CC3)cc2n1)C1CCC(F)(F)CC1 (single isomer, unassigned) [Example 431, N—((S)-(7-((R*)-(1-Cyanocyclopropyl)(2-(3,3-difluorocyclobutyl)acetamido)methyl)imidazo[1,2-b]pyridazin-2-yl)(4,4-difluorocyclohexyl)methyl)-1-isopropyl-1H-pyrazole-5-carboxamide] | – | > 20000 |
| 220 | O=C(CC1CC(F)(F)C1)NC(c1cnn2cc([C@@H](NC(=O)c3cnn(CCC(F)(F)F)c3)C3CCC(F)(F)CC3)nc2c1)C1CC1 (single isomer, unassigned) [Example 8, N—((S)-(7-((R*)-Cyclopropyl(2-(3,3-difluorocyclobutyl)acetamido)methyl)imidazo[1,2-b]pyridazin-2-yl)(4,4-difluorocyclohexyl)methyl)-1-(3,3,3-trifluoropropyl)-1H-pyrazole-4-carboxamide] | – | 360 |
